Data as given in US5328840A, “Method for preparing targeted carrier erythrocytes” (The Research Foundation of the State University of New York, priority 1991, dated 1994).
“Also recorded” adds a separate entry of the source. Read-outs that look alike come from different tables or passages of the source. Values belong to the molecule of their own block, whether it stands above or below them. Where a SMILES comes first, the peptide text is derived from it.

Columns and labels:
7E3 binding to platelets = target: T1, 7E3 binding to platelets (Homo sapiens, UniProt P05106+P08514); assay: Effect of RGD peptides on initial rate of 125I-7E3 binding to platelets
T1 construct: endogenous in cells; host or cells: platelets in citrated platelet-rich plasma (PRP)
Procedure: (§1) To assess the effect of RGD-containing peptides on the initial rate of binding of 7E3 and 10E5, studies were conducted with ^125 I-7E3 and ^125 I-10E5 essentially as described before (Coller, B.S., 1985, J. Clin. Invest. 76:101). The RGDS or LGGAKQAGDV(R)8 RGDV peptide was incubated at 22° C. with citrated PRP (~3×10^8 /ml) for 1 to 5 min at various concentrations and then non-saturating concentrations of the antibodies (1.5-2.5 μg/ml) were added for 1 to 2 min. The bound antibody was separated from the free by centrifugation of the PRP through 20% sucrose and both the platelet pellet and the supernatant were counted. Results were expressed as either an increase or decrease in antibody binding as compared to a buffer control.

[1] = target: T2, 10E5 binding to platelets (Homo sapiens, UniProt P05106+P08514); assay: Effect of RGD peptides on initial rate of 125I-10E5 binding to platelets; conditions: similar concentrations (up to 5 mM); one experiment
T2 construct: endogenous in cells; host or cells: platelets in citrated platelet-rich plasma (PRP)
Procedure: as §1

[2] = for solubility in 0.1% trifluoroacetic acid: pH 2.5; for solubility in the acetate buffer: pH 6.5
activated platelets = assay: Platelet-thrombo-erythrocyte co-aggregation assay (microtiter); format: cell-based
Procedure: To assess the ability of thrombo-erythrocytes to enter into developing platelet aggregates, a microtiter assay was developed. Platelet-rich plasma (PRP) was prepared from blood anticoagulated with 0.01 volume 40% sodium citrate and adjusted to a platelet count of 3.5×10^8 /ml with platelet-poor plasma. Aliquots (50 or 100 μl) of the PRP were added to microtiter wells and then 5 or 10 μl of ADP (100 μM stock solution) was added to selected wells, followed by the addition of 5 or 10 μl of thrombo-erythrocytes (10% hematocrit in buffer A). The microtiter plate was then rotated at 270 rpm at 22° C. for variable periods of time between 0.5 and 20 min and the extent of platelet-thrombo-erythrocytecoaggregation was assessed visually on a scale from 0-4+ with the aid of a magnifying mirror. To assess the specificity of the reaction, in some experiments the PRP was preincubated with 10 mM EDTA, 300 μg/ml of the peptide RGDF, or 20 μg/ml of an antibody directed against both the GPIIb/IIIa receptor and the αv β3 vitronectin receptor that blocks fibrinogen binding to activated platelets (7E3) (Coller, 1985, J. Clin. Invest. 76:101-108; Coller et al., 1991, Blood 77:75-83). Blood smears were made from the samples in some experiments and stained with a standard Wright stain (Hemastain, Geometric Data, Wayne, Pa.).

platelets [3] = assay: Agglutination assay with peptide-coated beads; format: cell-based
Procedure: Biol. 109:863) was a gift of Dr. Kenneth Yamada, National Institutes of Health, Bethesda, Md. The platelets were incubated with the antibody concentrations indicated for 30-60 min before the addition of the beads. In the case of PAC-1, which binds only to activated platelets (Shattil et al. 1985, J. Biol. Chem. 260:1107), the platelets were activated with ADP (6.7 μM final concentration) without stirring for 5 min before adding the antibody.
To 70 μl of PRP or GFP at a count of 3×10^11 platelets/l in a 96 well round bottom polystyrene microtiter plate, 5 μl of a well mixed bead suspension (0.22 mg beads) was added and the plate was rotated at 260 rpm (Orbit shaker, Lab Line Instruments, Melrose Park, Ill.) for various times between 0 and 30 min (0.5, 1, 2, 4, 6, 8, 10, 12, 15, 20, 25, 30 min). […] Platelet counts in the supernatant plasma or buffer were measured by removing 5 μl from the supernatant after allowing the bead agglutinates to settle for 3 min. […] In some experiments, platelets were activated with 6.7 μM ADP 30 sec prior to the addition of the beads; in other experiments the platelets were preincubated with 0.14 μM PGE1 (Sigma, St. Louis) for 30 min.

gel-filtered platelets = assay: Co-aggregation of thrombo-erythrocytes with gel-filtered platelets in the aggregometer; format: cell-based
Procedure: To obtain more quantitative data on the co-aggregation of thrombo-erythrocytes with platelets, the assay was adapted to the aggregometer. PRP was prepared from whole blood anticoagulated with ACD-A (8.5:1.5) and gel-filtered over a column of Sepharose 2B (Pharmacia) using a modified Tyrodes buffer (140 mM NaCl, 3 mM KCl, 12 mM NaHCO3, 0.4 mM NaH2 PO4, 10 mM HEPES, 2 mM MgCl2, 0.2% bovine serum albumin, 5 mM glucose, pH 7.4). Samples consisted of 450 μl of gel-filtered platelets+20 μl of thrombo-erythrocytes (10% hematocrit) or control erythrocytes (i.e., erythrocytes incubated with peptide but no crosslinker). Maximal transmission was set with 450 μl of buffer+20 μl of control erythrocytes. Platelets were activated with ADP (4.3 μM final concentration) or epinephrine (10 μM).

erythrocytes = assay: Assessment of hemolysis (leucomalachite green); conditions: mean SD; n=6
Procedure: Hemolysis of erythrocytes during thrombo-erythrocyte preparation was assayed by the reaction of any free hemoglobin with leucomalachite green (Kodak; 0.1% p,p'-benzylidenebis-(N,N-dimethylaniline) in 3.3 M acetic acid). The resulting compound was detected by absorbance at 617 nm, a wavelength that is not interfered with by the mal-sac-HNSA dianion. Standards were prepared by lysing known amounts of erythrocytes in deionized water. The assay consisted of 10 μl of sample (the supernatant of the reaction mixture after centrifuging to remove intact erythrocytes), 1 ml of leucomalachite green, and 1 ml of 0.1% […]. After 10 min the absorbance of each sample was read at 617 nm.

[4] = tested on: platelets adherent to collagen; assay: Binding of thrombo-erythrocytes to platelets adherent to collagen; format: cell-based; conditions: 1 hour, 22° C., 2 mM MgCl2
Procedure: The first stage of the assay, involving the adhesion of platelets to purified type 1 rat skin collagen, was performed as described previously, but without radiolabeling the platelets (Coller et al., 1989, Blood 74:182-192). In brief, a sample of gel-filtered platelets (100 μl; 5.5×10^8 /ml) in the presence of 2 mM MgCl2 was added to microtiter plate wells precoated with collagen and the platelets were allowed to adhere for 1 hour at 22° C. The wells were then emptied and washed×3 with buffer (0.15M NaCl, 0.01M Tris/HCl, 0.5% bovine serum albumin, 5 mM glucose, pH 7.4). Control erythrocytes or thrombo-erythrocytes (50 μl; 10% hematocrit) were then added to the wells in the same buffer, which was now supplemented with 2 mM MgCl2. After 60 min, the wells were emptied and washed×3 as above. The wells were then visually inspected at 400× magnification with the aid of a microscope with Nomarski optics. The effect of 20 μg/ml of an antibody to GPIIb/IIIa that blocks fibrinogen binding and platelet aggregation (10E5) (Coller et al., 1983, J. Clin. Invest. 72:325-338) and 400 μg/ml of the peptide RGDF on thrombo-erythrocyte adhesion to platelets was tested by adding these agents to the thrombo-erythrocytes immediately before the thrombo-erythrocytes were added to the microtiter wells.

platelets [5] = assay: Release of 14C-serotonin from platelets; format: cell-based; conditions: acetylsalicylic acid 50 μM; PGE1 0.14 μM; 8 min
Procedure: Citrated PRP (3×10^11 /l) was incubated with ^14 C-5-serotonin (10 μCi/ml stock solution, 20-25 nCi/ml final concentration, New England Nuclear, Boston, Mass.) for 30 min at 22° C. with gentle stirring (~100 rpm) using a teflon coated stir bar. In order to maintain the PRP pH constant at ~7.60, the PRP was overlayed with 5% CO2, 95% air just before the incubation began. Serotonin uptake was terminated by adding 5 μM imipramine (Sigma) and stirring was continued for another 5 min. Total uptake under these conditions was 70-80% of the added serotonin. The agglutination assay was performed in quadruplicate in the same way as described above except that after 8 min of shaking, 70 μl of cold 2% paraformaldehyde in PBS, pH 7.4 was added to the wells and the microtiter plate was centrifuged at 1000×g for 5 min at 22° C. The top 50 μl of the supernatant (total volume in each well was 145 μl) was added to scintillation fluid and counted in a scintillation spectrometer. In some experiments the PRP was preincubated with acetylsalicylic acid (50 μM) or PGE1 (0.14 μM) during the serotonin uptake.

[6] = Solubility of (G)n-RGDF peptides in buffers

T1 sequence (P08514 32-887 limits assumed): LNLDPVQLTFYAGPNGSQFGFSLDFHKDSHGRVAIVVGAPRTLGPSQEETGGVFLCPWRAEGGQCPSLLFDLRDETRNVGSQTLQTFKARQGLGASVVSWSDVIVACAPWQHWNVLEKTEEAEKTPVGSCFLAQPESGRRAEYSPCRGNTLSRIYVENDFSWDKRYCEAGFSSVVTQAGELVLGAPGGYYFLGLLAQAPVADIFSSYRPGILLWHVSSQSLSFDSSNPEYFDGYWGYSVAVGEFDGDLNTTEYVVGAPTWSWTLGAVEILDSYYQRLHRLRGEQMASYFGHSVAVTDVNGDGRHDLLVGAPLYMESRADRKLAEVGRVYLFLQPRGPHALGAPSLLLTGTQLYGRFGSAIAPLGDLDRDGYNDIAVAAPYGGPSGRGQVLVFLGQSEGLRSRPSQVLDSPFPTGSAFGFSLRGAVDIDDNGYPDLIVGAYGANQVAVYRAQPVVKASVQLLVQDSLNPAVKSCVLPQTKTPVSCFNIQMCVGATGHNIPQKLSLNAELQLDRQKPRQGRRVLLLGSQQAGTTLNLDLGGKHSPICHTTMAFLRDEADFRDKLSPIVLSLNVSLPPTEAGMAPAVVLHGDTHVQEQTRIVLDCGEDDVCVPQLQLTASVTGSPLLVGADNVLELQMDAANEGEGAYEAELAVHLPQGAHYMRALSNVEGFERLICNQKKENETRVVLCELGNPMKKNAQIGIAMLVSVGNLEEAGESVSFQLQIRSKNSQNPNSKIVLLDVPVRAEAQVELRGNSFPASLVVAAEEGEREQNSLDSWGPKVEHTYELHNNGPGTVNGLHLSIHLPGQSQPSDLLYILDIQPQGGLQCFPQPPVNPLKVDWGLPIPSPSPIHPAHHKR
T1 sequence (P08514 891-1039 partner limits assumed): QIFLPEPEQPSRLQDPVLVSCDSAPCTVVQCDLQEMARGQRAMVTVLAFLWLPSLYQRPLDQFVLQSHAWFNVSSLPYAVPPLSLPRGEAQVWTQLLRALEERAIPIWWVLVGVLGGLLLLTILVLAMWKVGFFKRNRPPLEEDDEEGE
T1 sequence (P05106 27-788): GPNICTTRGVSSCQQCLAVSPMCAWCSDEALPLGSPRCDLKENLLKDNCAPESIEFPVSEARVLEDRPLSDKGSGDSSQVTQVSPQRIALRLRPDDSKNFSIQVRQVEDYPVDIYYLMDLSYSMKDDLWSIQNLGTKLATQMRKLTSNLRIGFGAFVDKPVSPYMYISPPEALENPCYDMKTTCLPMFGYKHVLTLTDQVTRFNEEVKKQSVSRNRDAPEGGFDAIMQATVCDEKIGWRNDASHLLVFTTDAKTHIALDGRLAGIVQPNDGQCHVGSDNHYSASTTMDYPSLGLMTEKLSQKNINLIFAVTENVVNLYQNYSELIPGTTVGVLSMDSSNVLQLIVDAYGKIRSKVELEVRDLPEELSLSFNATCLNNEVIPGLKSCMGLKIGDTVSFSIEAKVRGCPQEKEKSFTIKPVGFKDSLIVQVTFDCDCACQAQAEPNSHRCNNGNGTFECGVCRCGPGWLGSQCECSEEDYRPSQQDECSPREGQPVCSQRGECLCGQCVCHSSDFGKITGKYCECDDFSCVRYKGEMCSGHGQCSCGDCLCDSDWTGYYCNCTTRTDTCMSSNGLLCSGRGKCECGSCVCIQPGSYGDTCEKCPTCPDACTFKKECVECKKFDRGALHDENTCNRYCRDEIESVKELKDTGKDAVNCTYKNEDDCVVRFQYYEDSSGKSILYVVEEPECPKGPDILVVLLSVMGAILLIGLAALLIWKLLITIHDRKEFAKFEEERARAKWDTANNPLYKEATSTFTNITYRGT
T2 sequence (P08514 32-887 limits assumed): as the sequence (P08514 32-887 limits assumed) above
T2 sequence (P08514 891-1039 partner limits assumed): as the sequence (P08514 891-1039 partner limits assumed) above
T2 sequence (P05106 27-788): as the sequence (P05106 27-788) above

increase in initial rate of 7E3 binding (7E3 binding to platelets; peptide 2.5 mM, n=1): 63%
increase in initial rate of 7E3 binding (7E3 binding to platelets; peptide 5 mM, citrated PRP, n=2): 66%
increase in initial rate of 7E3 binding (7E3 binding to platelets; peptide 0.5-1 mM, n=4): 21%
decrease in rate of 10E5 binding [1]: 5%
Molecule: RGDS

solubility in 0.1% trifluoroacetic acid [2]: fully soluble
solubility in the acetate buffer [2]: only partially soluble
Molecule: N=C(N)NCCC[C@H](NC(=O)CNC(=O)CNC(=O)CNC(=O)CNC(=O)CNC(=O)CNC(=O)CNC(=O)CNC(=O)CNC(=O)CNC(=O)CNC(=O)CNC(=O)CNC(=O)CNC(=O)CNC(=O)CNC(=O)CN)C(=O)NCC(=O)N[C@@H](CC(=O)O)C(=O)N[C@@H](Cc1ccccc1)C(N)=O [G17 -RGDF] (H-GGGGGGGGGGGGGGGGGRGDF-NH2)

Molecule: O=C(O)CN(CCN(CC(=O)O)CC(=O)O)CC(=O)O [EDTA, reference compound]
effect on platelet-thrombo-erythrocyte co-aggregation (activated platelets; ADP-activated PRP preincubated with 10 mM EDTA, 300 μg/ml RGDF or antibody 7E3): inhibited
bead agglutination in the presence of the agent (platelets [3]): no agglutination at all

Molecule: thrombo-erythrocytes: erythrocytes covalently conjugated through Mal-Sac-HNSA to the peptide acetyl-Cys-Gly-Gly-Arg-Gly-Asp-Phe-amide (Ac-CGGRGDF-NH2) (also: conjugated to erythrocytes via Mal-Sac-HNSA)
platelet-thrombo-erythrocyte co-aggregation (activated platelets; PRP with ADP, 120 min crosslinking, more than 20 experiments): positive response
interaction with platelets (activated platelets; no agonist added): did not interact with platelets
interaction with platelets (aggregometer) (gel-filtered platelets; ADP-activated gel-filtered platelets, 4.3 μM ADP): interact with ADP-activated platelets
interaction with platelets (aggregometer) (gel-filtered platelets; unactivated gel-filtered platelets, stirring, 37° C.): did not interact with unactivated platelets
erythrocyte hemolysis in supernatant fluid after the thrombo-erythrocyte reaction (erythrocytes): 0.40±0.09%
binding to platelets adherent to collagen [4]: formed a dense lawn on top of the platelet lawn; also recorded: bound extensively to the adherent platelets

Molecule: PAC-1
inhibition of agglutination of G1 -RGDF and G3 -RGDF beads (platelets [3]): effectively inhibited
Inhibition of G9 -RGDF Bead Agglutination (%) +ADP (platelets [3]; antibody 60 μg/ml, 30 min): 8%
inhibition of the interaction of platelets in PRP with G1 -RGDF, G3 -RGDF, and G5 -RGDF beads (platelets [3]; even with ADP activation): > 90%

Molecule: Y-HHLGGAKQAGDV (N-terminal added tyrosine) [Fibrinogen Dodecapeptide (+Tyr), fibrinogen γ-chain dodecapeptide (amino acids 400-411) with an added amino-terminal tyrosine]
Inhibition of G9 -RGDF Bead Agglutination (%) (platelets [3]; peptide 1.8 × 10^-3 M): 13%
Inhibition of G9 -RGDF Bead Agglutination (%) (platelets [3]; peptide 3.6 × 10^-3 M): 67%
Inhibition of G9 -RGDF Bead Agglutination (%) (platelets [3]; peptide ≤4.5 × 10^-4 M): 0%

Molecule: CCCCC[C@H](O)/C=C/[C@H]1[C@H](O)CC(=O)[C@@H]1CCCCCCC(=O)O [PGE1]
effect of preincubation of platelets on serotonin release induced by (G)n -RGDF beads (platelets [5]): abolished release

Molecule: CC(=O)Oc1ccccc1C(=O)O [acetylsalicylic acid]
effect of preincubation of platelets on serotonin release induced by (G)n -RGDF beads (platelets [5]): did not change this pattern

Molecule: N=C(N)NCCC[C@H](NC(=O)CNC(=O)CNC(=O)CNC(=O)CNC(=O)CNC(=O)CNC(=O)CNC(=O)CNC(=O)CNC(=O)CNC(=O)CN)C(=O)NCC(=O)N[C@@H](CC(=O)O)C(=O)N[C@@H](Cc1ccccc1)C(N)=O [G11 -RGDF]
solubility in the acetate buffer ([6]; 0.05M Na acetate buffer, pH 6.5): only partially soluble
solubility in 0.1% trifluoroacetic acid ([6]; pH 2.5, 22° C. or 37° C.): fully soluble

solubility in 0.1% trifluoroacetic acid [2]: fully soluble
solubility in the acetate buffer [2]: only partially soluble
Molecule: N=C(N)NCCC[C@H](NC(=O)CNC(=O)CNC(=O)CNC(=O)CNC(=O)CNC(=O)CNC(=O)CNC(=O)CNC(=O)CNC(=O)CNC(=O)CNC(=O)CNC(=O)CN)C(=O)NCC(=O)N[C@@H](CC(=O)O)C(=O)N[C@@H](Cc1ccccc1)C(N)=O [G13 -RGDF]

solubility in 0.1% trifluoroacetic acid [2]: fully soluble
solubility in the acetate buffer [2]: only partially soluble
Molecule: N=C(N)NCCC[C@H](NC(=O)CNC(=O)CNC(=O)CNC(=O)CNC(=O)CNC(=O)CNC(=O)CNC(=O)CNC(=O)CNC(=O)CNC(=O)CNC(=O)CNC(=O)CNC(=O)CNC(=O)CN)C(=O)NCC(=O)N[C@@H](CC(=O)O)C(=O)N[C@@H](Cc1ccccc1)C(N)=O [G15 -RGDF] (H-GGGGGGGGGGGGGGGRGDF-NH2)

solubility in 0.1% trifluoroacetic acid [2]: fully soluble
solubility in the acetate buffer [2]: only partially soluble
Molecule: N=C(N)NCCC[C@H](NC(=O)CNC(=O)CNC(=O)CNC(=O)CNC(=O)CNC(=O)CNC(=O)CNC(=O)CNC(=O)CNC(=O)CNC(=O)CNC(=O)CNC(=O)CNC(=O)CNC(=O)CNC(=O)CNC(=O)CNC(=O)CNC(=O)CN)C(=O)NCC(=O)N[C@@H](CC(=O)O)C(=O)N[C@@H](Cc1ccccc1)C(N)=O [G19 -RGDF] (H-GGGGGGGGGGGGGGGGGGGRGDF-NH2)
